From patent US8614187B2, “Peptides, compositions and uses thereof” (The Queen's University of Belfast, priority 2007, dated 2013)

Key:
[1] = tested on: rat tail arterial smooth muscle preparation; assay: Rat tail artery smooth muscle bioassay (relaxation of phenylephrine-preconstricted artery); type: cell-based; conditions: for % Maximum Response (relaxation): rat tail artery, pre-constricted, at optimum concentration
Description: (A) Arterial Smooth Muscle:
Male albino Wistar rats (200-350 g) were euthanized by asphyxiation followed by cervical dislocation.
The tail artery was prepared as previously described (Hirst et al (1994) Br. J. Radiol. 67, 795-799). Incubation buffer was 95% O2/5% CO2 oxygenated Krebs' solution (NaCl 118 mM, KCl 4.7 mM, NaHCO3 25 mM, NaH2 PO4 1.15 mM, CaCl2 2.5 mM, MgCl2 1.1 mM, glucose 5.6 mM). Constriction or dilation of the arterial smooth muscle preparation was detected by an increase or decrease in pressure generated by water column displacement using pressure transducers connected to a MacLab System (AD Instruments Pty Ltd. Australia). […] Viability was determined using a range of bolus phenylephrine (5 μM-10 μM) exposures and the endothelial layer of the artery was removed by bubbling with oxygen for 10 s. Absence of the endothelial layer was confirmed by the lack of relaxation in response to a 30 min perfusion of acetylcholine (50 μM) after preconstriction with phenylephrine (10 μM).
(§1) For intestinal smooth muscle preparations, one cm thick rings of ileum were carefully placed onto the pins of a MacLab force transducer, one pin acting as a stationary fixed point while the second pin was free, permitting application of tension to the smooth muscle. The muscle rings were gradually exposed to 0.1 g increments in resting tension until the spontaneous contractions originated from a resting tension of 0.5 g. The contracting muscle preparations were allowed to stabilise for 25 min before the application of peptides. After perfusion of arterial preparations with 10 μM phenylephrine to obtain constriction plateaux, relative relaxation was recorded following applications of peptides in the range of 1×10^−5-1×10^−10 M. The intestinal smooth muscle ring preparations were exposed to peptide doses as above and relative changes in tension were recorded.

[2] = tested on: rat ileal smooth muscle ring preparation; assay: Rat ileum smooth muscle ring bioassay (constriction of spontaneously contracting ileum); type: cell-based; conditions: for % Maximum Response (constriction): spontaneously contracting rat ileum, at optimum concentration
Excerpt: (B) Small Intestinal Smooth Muscle:
as §1

[3] = tested on: Human Microvascular Endothelial Cells (HMEC-1); assay: Human microvessel endothelial cell wound scrape (migration) assay; type: cell-based
Description: (§2) • 1. […] Selective arterial smooth muscle dilators often have pro-angiogenic properties so QUB 698.8 was subjected to a range of appropriate bioassays to determine spectra of activity. • 4. In the human microvessel endothelial cell wound scrape assay, cells are grown on a glass slide to confluence, a standard-sized wound is made with a pipette tip and time taken to repair tear is measured. QUB 698.8 promoted wound closure 42% faster than non-treated controls at an optimum effective concentration of 10 nanomolar (Table 1—panel B and FIGS. 2a and b). • 5. Using an in vitro endothelial cell angiogenic tubule formation assay (Matrigel) QUB 698.8 induced 75% more tubules than time-matched controls at an optimum concentration of 1 nanomolar (Table 1—panel B and FIG. 3). • 6. […] (Table 1—panel B and FIG. 4). This may be indicative of a rapid role in cell cycle synchronization.

HMEC-1 [4] = assay: In vitro endothelial cell angiogenic tubule formation assay (Matrigel); type: cell-based, human
Description: FIG. 3 illustrates the effect of the QUB 698.8 peptide on the ability of HMEC-1 to form tubules on matrigel matrices.
as §2

HMEC-1 [5] = assay: Endothelial cell proliferation assay (MTT); type: cell-based, human
Description: FIG. 4 illustrates the effect of the QUB 698.8 peptide on the proliferation of HMEC-1 over 72 hours compared to a non-treatment control.
as §2

[6] = migration wound scrape, T = 7 dose response

DLPKIN [QUB 698.8, Asp-Leu-Pro-Lys-Ile-Asn]
Response of rat tail arterial smooth muscle preparation [1]: dose-dependent relaxation
Optimum concentration for maximal effect, arterial compared to ileal smooth muscle ([1]; arterial vs ileal smooth muscle): two orders of magnitude lower
EC50 ([1]; rat tail artery relaxation): 7 nM
Optimum Concentration ([1]; rat tail artery relaxation): 10^−7 M
Potency relative to bradykinin ([1]; rat tail artery relaxation): almost equipotent with bradykinin
Potency relative to maximakinin ([1]; rat tail artery relaxation): more potent than maximakinin
% Maximum Response (relaxation) [1]: 25% relaxation
Response of rat ileal smooth muscle ring preparation [2]: dose-dependent constriction
EC50 ([2]; rat ileum constriction): 1440 nM
Optimum Concentration ([2]; rat ileum constriction): 10^−5 M
Potency relative to bradykinin and maximakinin ([2]; rat ileum constriction): less potent than both bradykinin and maximakinin
% Maximum Response (constriction) [2]: 52% Constriction
Time to 50% wound closure ([3]; migration wound scrape, Other information): T = 3 hrs
EC50 [3, 6]: 0.339 nM
Optimum Concentration [3, 6]: 10^−8 M
Peptide effect ([3]; migration wound scrape, T = 7 dose response: promoter of wound closure): Potent
Optimum effective concentration ([3]; wound closure): 10 nM
Optimum Concentration ([3]; wound scrape total time to closure): 10^−8 M
Time to complete wound closure ([3]; wound scrape total time to closure, 10^−8 M): 16 h
Peptide effect ([3]; wound scrape total time to closure: stimulator of initial endothelial migration): Potent
Peptide effect (HMEC-1 [4]; stimulator of endothelial tubule formation): Potent
EC50 (HMEC-1 [4]; tubule formation): 0.0526 nM
Optimum Concentration (HMEC-1 [4]; tubule formation): 10^−9 M
Optimum concentration (HMEC-1 [4]; tubule formation): 1 nM
Endothelial cell number compared to non-treated controls after 48 h (HMEC-1 [5]; after 48 h): no significant differences
Other information: proliferation after 24 hrs (HMEC-1 [5]; beyond 24 hrs): No further
EC50 (HMEC-1 [5]; proliferation): 0.0659 nM
Optimum Concentration (HMEC-1 [5]; proliferation): 10^−8 M
Peptide effect (HMEC-1 [5]; stimulator of endothelial cell proliferation): Potent

DLPKINRKGPRPPGFSPFR [Mx, Asp-Leu-Pro-Lys-Ile-Asn-Arg-Lys-Gly-Pro-Arg-Pro-Pro-Gly-Phe-Ser-Pro-Phe-Arg, reference compound]
EC50 ([1]; rat tail artery relaxation): 6.18 nM
Optimum Concentration ([1]; rat tail artery relaxation): 10^−7 M
% Maximum Response (relaxation) [1]: 30% relaxation
EC50 ([2]; rat ileum constriction): 534 nM
Optimum Concentration ([2]; rat ileum constriction): 10^−6 M
% Maximum Response (constriction) [2]: 52% Constriction
